Among the test systems are SF-539 CNS; OVCAR-3 ovarian; TK-10 renal; NCI-H460 lung; A498 renal; UO-31 renal; IGROV1 ovarian; MCF7 breast; OVCAR-5 ovarian; EKVX NSCLC.
Holding throughout (assay): NCI anticancer screen, dose series, 48 h

Each structure is given as a SMILES string.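 Dose response: 5 concentrations. Exposure: 48 h. Format: 96-well plates. Endpoint: linear interpolation; highest concentration if not reached. Abbreviation: GI50, concentration required for 50% inhibition of growth. At the TGI there is no net growth.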

`O=Cc1ccc(-c2ccc(-c3ccc(C=O)o3)[se]2)o1`: the GI50 is more than 100 µM with SF-539 CNS; more than 100 µM in the test on OVCAR-3 ovarian; 7.73 µM in the test with TK-10 renal; more than 100 µM in the test with NCI-H460 lung; 0.302 µM in the test with A498 renal; more than 100 µM in the test with UO-31 renal. The results for the GI50 with IGROV1 ovarian, with MCF7 breast and in the test on OVCAR-5 ovarian were more than 65.9 µM, 6.35 µM and more than 85.2 µM, respectively. Also, the TGI is more than 100 µM with SF-539 CNS; more than 100 µM in the test on OVCAR-3 ovarian; more than 100 µM in the test on TK-10 renal; more than 100 µM with NCI-H460 lung; 10.5 µM in the test with A498 renal; more than 100 µM in the test on UO-31 renal. Further, the TGI in the test on IGROV1 ovarian, with MCF7 breast and in the test with OVCAR-5 ovarian was more than 100 µM each time.
Take `FC(F)(F)c1ccc(-c2ncc(-c3ccc(C(F)(F)F)cc3)c(NCc3cc(C(F)(F)F)cc(C(F)(F)F)c3)n2)cc1`: the GI50 with SF-539 CNS was 7.71 µM; in the test with OVCAR-3 ovarian it was 3.39 µM; with TK-10 renal it was 7.51 µM; with NCI-H460 lung, 3.72 µM; in the test with A498 renal it was 2.31 µM; in the test on UO-31 renal it was 2.94 µM. The GI50 in the test on IGROV1 ovarian is 9.02 µM; with MCF7 breast, 3.94 µM; in the test on OVCAR-5 ovarian it was 6.02 µM. In addition, the TGI in the test with SF-539 CNS is more than 100 µM; in the test on OVCAR-3 ovarian, 16 µM; with TK-10 renal it was more than 100 µM; with NCI-H460 lung, 79.4 µM; in the test with A498 renal it was 8.75 µM; in the test on UO-31 renal it was 36.6 µM. In addition, the TGI in the test with IGROV1 ovarian, with MCF7 breast and with OVCAR-5 ovarian was more than 100 µM throughout.
For the compound `COc1cc(/C=C/C(=O)c2c(C)nc3ccccc3c2C)ccc1OCCCCOc1cc2c(cc1OC)C(=O)N1CCC[C@H]1C=N2`, the GI50 was 0.55 µM in the test with SF-539 CNS; 1.74 µM in the test on EKVX NSCLC; 0.217 µM in the test with OVCAR-3 ovarian; 0.403 µM in the test on TK-10 renal; 0.832 µM in the test with NCI-H460 lung; 0.286 µM with A498 renal. Moreover, the GI50 in the test with UO-31 renal was 0.252 µM; in the test on MCF7 breast, 0.238 µM; in the test on OVCAR-5 ovarian, 0.528 µM. The TGI in the test on SF-539 CNS is 1.54 µM; with EKVX NSCLC it was 3.56 µM; in the test on OVCAR-3 ovarian it was 0.631 µM; in the test on TK-10 renal, 3.2 µM; in the test on NCI-H460 lung it was 2.58 µM; in the test on A498 renal, 0.779 µM. The values for the TGI with UO-31 renal, with MCF7 breast and in the test with OVCAR-5 ovarian were 1.08 µM, 0.975 µM and 3.35 µM, respectively.
Regarding `C/C(=N/NC(=S)N1CC2CCC(CC2)C1)c1cnccn1`, the TGI in the test on SF-539 CNS is 15.6 µM; in the test with EKVX NSCLC, 12.3 µM; in the test with TK-10 renal, 16.7 µM; in the test with NCI-H460 lung, 0.273 µM; in the test on A498 renal it was 14.2 µM; in the test with UO-31 renal it was 2.02 µM. The TGI in the test with IGROV1 ovarian came out at 2.62 µM; with MCF7 breast, 12.1 µM; in the test on OVCAR-5 ovarian it was 24.6 µM.
Consider `O=c1[nH]c(F)nc2c1ncn2C1OC(CO)C(O)C1O` (configuration not stated), for which the GI50 was 23.9 µM with SF-539 CNS; more than 100 µM in the test on OVCAR-3 ovarian; more than 100 µM in the test on NCI-H460 lung; more than 100 µM in the test on A498 renal; more than 100 µM in the test on UO-31 renal; more than 100 µM in the test with IGROV1 ovarian. Also, the GI50 in the test with MCF7 breast and in the test with OVCAR-5 ovarian was more than 100 µM in each case. In addition, the TGI in the test with SF-539 CNS is 80.3 µM; in the test with OVCAR-3 ovarian, more than 100 µM; with NCI-H460 lung, more than 100 µM; in the test with A498 renal, more than 100 µM; in the test with UO-31 renal, more than 100 µM; with IGROV1 ovarian, more than 100 µM. Also, the TGI in the test with MCF7 breast and in the test on OVCAR-5 ovarian was more than 100 µM throughout.
On to `Cc1ccc(NC(=O)c2nc(S(C)(=O)=O)oc2-c2ccc(F)cc2)cc1Nc1ccc2ncn(C)c(=O)c2c1`, for which the GI50 with SF-539 CNS was 1.65 µM; with TK-10 renal, 1.83 µM; in the test on NCI-H460 lung it was 3.26 µM; with A498 renal, 16.3 µM; in the test on UO-31 renal, 1.93 µM; in the test on MCF7 breast it was 1.9 µM. In addition, the GI50 with OVCAR-5 ovarian was 2.1 µM. Also, the TGI in the test with SF-539 CNS is 3.14 µM; with TK-10 renal it was 3.25 µM; in the test on NCI-H460 lung, 10.9 µM; in the test with A498 renal, 29.8 µM; in the test on UO-31 renal, 3.4 µM; with MCF7 breast it was 4.43 µM. Besides, the TGI in the test with OVCAR-5 ovarian was 5.29 µM.
On to `CC(C)OCc1cc(CN2CCN(c3cccc(Cl)c3)CC2)c(O)c2ncccc12`, for which the GI50 in the test with SF-539 CNS was 0.471 µM; in the test with OVCAR-3 ovarian, 0.451 µM; with TK-10 renal, 0.837 µM; with NCI-H460 lung it was 0.41 µM; in the test with A498 renal it was 0.871 µM; with UO-31 renal, 0.24 µM. The GI50 is 0.621 µM in the test with IGROV1 ovarian, 0.377 µM in the test with MCF7 breast and 3.6 µM in the test on OVCAR-5 ovarian. Besides, the TGI stood at 3.48 µM in the test with SF-539 CNS; 14.8 µM in the test with OVCAR-3 ovarian; 21 µM in the test with TK-10 renal; 11.2 µM in the test with NCI-H460 lung; 8.25 µM with A498 renal; 1.38 µM in the test with UO-31 renal. In addition, the TGI is 16.6 µM in the test on IGROV1 ovarian, 11.5 µM in the test on MCF7 breast and 15.1 µM with OVCAR-5 ovarian.
Take `CCC(C)CC(C)C(=O)c1c(O)ccn(O)c1=O` (configuration not stated): the GI50 is 1.04 µM with SF-539 CNS; 0.415 µM in the test on OVCAR-3 ovarian; 17.8 µM in the test on TK-10 renal; 0.447 µM with NCI-H460 lung; 0.376 µM with UO-31 renal; 3.18 µM with IGROV1 ovarian. Besides, the figures for the GI50 in the test on MCF7 breast and in the test with OVCAR-5 ovarian were 3.09 µM and 23.7 µM, respectively. In addition, the TGI with SF-539 CNS is 8.08 µM; in the test with OVCAR-3 ovarian, 45.3 µM; in the test with TK-10 renal it was more than 100 µM; with NCI-H460 lung, 11.6 µM; with UO-31 renal, 4.31 µM; with IGROV1 ovarian it was 28.1 µM. Besides, the TGI in the test with MCF7 breast and with OVCAR-5 ovarian was more than 100 µM throughout.

Values taken from PubChem BioAssay (NCI).
